Measured values taken from patent US20260216239A1 (Arizona Board of Regents on Behalf of the University of …, priority 2020, published 2026).
“Also recorded” adds a separate entry of the source.

Experiments:
Echis leucogaster venom = test: Thrombelastography in human plasma of venom procoagulant activity after isolated exposure of venom to compounds; format: biochemical
Procedure: Thrombelastographic analyses. The volumes of subsequently described plasmatic and other additives summed to a final volume of 360 μl. Samples were composed of 320 μl of plasma; 16.4 μl of PBS, 20 μl of 200 mM CaCl2), and 3.6 μl of PBS or venom mixture, which were pipetted into a disposable cup in a Thrombelastograph® hemostasis system (Model 5000, Haemonetics Inc., Braintree, MA, USA) at 37° C., and then rapidly mixed by moving the cup up against and then away from the plastic pin five times. The following viscoelastic parameters described previously (see, Nielsen V G (2019) J Thromb Thrombolysis 47, 73-79; Gessner G, et al., (2017) Eur J Pharmacol 815, 33-41; Nielsen V G, Wagner M T, Frank N (2020) Int J Mol Sci 21, 2082; Lazić D, Arsenijević A, Puchta R, Bugarčić ŽD, Rilak A (2016) Dalton Trans 45, 4633; Hanif M, et al., (2017) ChemPlusChem 82, 841-847) were measured: time to maximum rate of thrombus generation (TMRTG): this is the time interval (minutes) observed prior to maximum speed of clot growth; maximum rate of thrombus generation (MRTG): this is the maximum velocity of clot growth observed (dynes/cm^2/second); and total thrombus generation (TTG, dynes/cm^2), the final viscoelastic resistance observed after clot formation.
E. leucogaster. This venom was exposed to 0 or 100 μM CORM-2 in the presence of 0 or 100 μM RuCl3 in PBS for at least 5 minutes at room temperature prior to placement into plasma followed immediately with commencement of thrombelastographic analysis. The final concentration of this venom in plasma was 1 μg/ml.
Given the aforementioned, the experimental conditions utilized were: 1) V condition—venom in PBS; 2) Ru(II) condition—venom exposed to CORM-2; 3) Ru(III) condition—venom exposed to RuCl3; 4) Ru(II+III) condition—venom exposed to CORM-2 and RuCl3 simultaneously. After the 5 minute period at room temperature, 3.6 μl of one of these solutions was added to the plasma sample in the plastic thrombelastograph cup.
(§1) All venom solutions without or with chemical additions in isolation were added as a 1% addition to the plasma mix used in our thrombelastographic system (see, Nielsen, V. G.; et al., Biometals 2016, 29, 913-919; Nielsen, V. G.; Losada, P. A. Basic Clin. Pharmacol. Toxicol. 2017, 120, 207-212; Nielsen, V. G.; Frank, N. J. Thromb. Thrombolysis 2019, 47, 533-539; Nielsen, V. G.; Bazzell, C. M. J. Thromb. Thrombolysis 2017, 43, 203-208; Nielsen, V. G.; Matika, R. W. Hum. Exp. Toxicol. 2017, 36, 727-733; Nielsen, V. G.; et al., Toxins 2018, 10, 322; Nielsen, V. G.; et al., Biometals 2018, 31, 51-59; Nielsen, V. G.; Frank, N. et al., Biometals 2018, 31, 951-959; Nielsen, V. G.; et al., Toxins 2019, 11, 94; Nielsen, V. G.; Frank, N. Hum Exp. Toxicol. 2019, 38, 216-226; Nielsen, V. G. J. Thromb. Thrombolysis 2019, 48, 256-262; Nielsen, V. G.; et al., Blood Coagul. Fibrinolysis 2019, 30, 379-384; Nielsen, V. G. J. Thromb. Thrombolysis 2019, 47, 73-79; Gessner, G.; et al., Eur. J. Pharmacol. 2017, 815, 33-41). […] The thrombelastographic model describes coagulation kinetics with the following three variables: time to maximum thrombus generation (TMRTG, minutes—a measure of time to onset of coagulation), maximum rate of thrombus generation (MRTG, dynes/cm^2/s—a measure of the velocity of clot growth) and total thrombus generation (TTG, dynes/cm^2—a measure of clot strength).

Atheris nitschei venom = test: as above; format: biochemical; settings: venom 1 μg/mL in plasma
Procedure: as §1
The volumes of subsequently described plasmatic and other additives summed to a final volume of 360 μL. Samples were composed of 320 μL of plasma; 16.4 μL of PBS, 20 μL of 200 mM CaCl2), and 3.6 μL of PBS, RuCl3, or venom solution mixture, which were pipetted into a disposable cup in a Thrombelastograph® hemostasis system (Model 5000, Haemonetics Inc., Braintree, MA, USA) at 37° C., and then rapidly mixed by moving the cup up against and then away from the plastic pin five times. The PBS, RuCl3, or venom solution mixtures was always the last constituent added prior to mixing and data collection. The following viscoelastic parameters described previously (see, Nielsen, V. G.; et al., Biometals 2016, 29, 913-919; Nielsen, V. G.; Losada, P. A. Basic Clin. Pharmacol. Toxicol. 2017, 120, 207-212; Nielsen, V. G.; Frank, N. J. Thromb. Thrombolysis 2019, 47, 533-539; Nielsen, V. G.; Bazzell, C. M. J. Thromb. Thrombolysis 2017, 43, 203-208; Nielsen, V. G.; Matika, R. W. Hum. Exp. Toxicol. 2017, 36, 727-733; Nielsen, V. G.; et al., Toxins 2018, 10, 322; Nielsen, V. G.; et al., Biometals 2018, 31, 51-59; Nielsen, V. G.; Frank, N. et al., Biometals 2018, 31, 951-959; Nielsen, V. G.; et al., Toxins 2019, 11, 94; Nielsen, V. G.; Frank, N. Hum Exp. Toxicol. 2019, 38, 216-226; Nielsen, V. G. J. Thromb. Thrombolysis 2019, 48, 256-262; Nielsen, V. G.; et al., Blood Coagul. Fibrinolysis 2019, 30, 379-384; Nielsen, V. G. J. Thromb. Thrombolysis 2019, 47, 73-79) were measured: time to maximum rate of thrombus generation (TMRTG): this is the time interval (minutes) observed prior to maximum speed of clot growth; maximum rate of thrombus generation (MRTG): this is the maximum velocity of clot growth observed (dynes/cm^2/s); and total thrombus generation (TTG, dynes/cm^2), the final viscoelastic resistance observed after clot formation. Data were collected until the clot strength reached its final plateau (maximum amplitude) that was stable for 3 min.

[1] = 100 μM CORM-2, 100 μM RuCl3 or both, venom 1 μg/ml in plasma
[2] = venom exposed ≥5 min in PBS to 100 μM CORM-2, 100 μM RuCl3 or both, venom 1 μg/ml in plasma
[3] = venom exposed 5 min to 100 μM RuCl3 in PBS, venom 1 μg/mL in plasma (Example III)
[4] = venom exposed 5 min to 100 μM RuCl3 in PBS

[C-]#[O+].[C-]#[O+].[C-]#[O+].[C-]#[O+].[C-]#[O+].[C-]#[O+].[Cl][Ru][Cl].[Cl][Ru][Cl] [CORM-2, tricarbonyldichlororuthenium(II) dimer]
maximum rate of thrombus generation (MRTG) (Echis leucogaster venom; [1]): decrease | time to maximum rate of thrombus generation (TMRTG) (Echis leucogaster venom; [1]): increased; also recorded: significant increase | procoagulant activity of venom (Echis leucogaster venom; venom exposed 5 min to 100 μM CORM-2 in PBS, venom 1 μg/mL in plasma (Example III)): significantly attenuated | procoagulant activity of venom (Echis leucogaster venom; [2]): significantly decreased; also recorded: procoagulant activity inhibition | procoagulant activity of venom (Atheris nitschei venom; venom exposed 5 min to 100 μM CORM-2 in 5% human albumin): uninhibited | procoagulant activity of venom (Atheris nitschei venom; venom exposed 5 min to 100 μM CORM-2 in PBS): significantly attenuated

[Cl][Ru]([Cl])[Cl] [RuCl3, ruthenium(III) chloride]
maximum rate of thrombus generation (MRTG) (Echis leucogaster venom; [1]): decrease | time to maximum rate of thrombus generation (TMRTG) (Echis leucogaster venom; [1]): increase | maximum rate of thrombus generation (MRTG) (Echis leucogaster venom; [3]): decrease | time to maximum rate of thrombus generation (TMRTG) (Echis leucogaster venom; [3]): significant increase | total thrombus generation (TTG) (Echis leucogaster venom; [3]): decrease | procoagulant activity of venom (Echis leucogaster venom; [2]): significantly diminished | maximum rate of thrombus generation (MRTG) (Atheris nitschei venom; [4]): significant increase | time to maximum rate of thrombus generation (TMRTG) (Atheris nitschei venom; [4]): very diminutive increase | total thrombus generation (TTG) (Atheris nitschei venom; [4]): significant increase
